From article PMC7144376, “Antiviral Effects of Novel 2-Benzoxyl-Phenylpyridine Derivatives” (Molecules, 2020)

Columns and labels:
[1] = tested on: ADV7; assay: ADV7 progeny virus yield in HeLa cells (TCID50 titration); assay type: cell-based, adenovirus type 7; conditions: 36 h, 120 μM W-9, 160 μM W-13, 160 μM W-15, 160 μM ribavirin
Procedure: (§1) Based on their antiviral activities and therapeutic selectivity indices, the effects on virus progeny yields of compounds W9, W13, and W15 were further investigated, using ribavirin as a positive control drug. To this end, confluent monolayers of Hep-2 or HeLa cells in 96-well plates were infected with 100 × median tissue culture infective dose (TCID50) of CVB3 or ADV7, then treated with 120 μM W-9, 160 μM W-13, 160 μM W-15, or 160 μM ribavirin. After 36 h, culture media and cell lysates were collected, following freeze-thaw cycles, and then subjected to virus titration.
(§2) Figure 2 The effects of W9, W13, and W15 on progeny virus production. Hep-2 cells infected with 100 TCID50 of CVB3 (a), or HeLa cells infected with 100 TCID50 of ADV7(b), were incubated in the absence (virus control) or presence of 120 μM W-9, 160 μM W-13, 160 μM W-15, or 160 μM ribavirin for 36 h, and the culture media and cell lysates then harvested for virus titration. Viral titers are presented as Log10 TCID50/mL. * p < 0.05; ** p < 0.01, compared with the virus control group.
(§3) CVB3 or ADV7 suspensions, serially diluted 10-fold with DMEM containing 2% FBS (DMEM maintenance medium, MM), were inoculated to Hep-2 or HeLa cells in 96-well plates. After 1.5 h incubation at 37 °C in 5% CO2, unbound virus was washed out and the MM was added to the cells. After 2 days, infected cells were monitored for CPEs and virus titers were calculated using the Reed–Muench method.

[2] = tested on: CVB3; assay: Time of (drug) addition experiment; assay type: cell-based, Coxsackievirus B3; conditions: compound present −1–10, 0–10 or 2–10 h; yield at 12 h pi; 120 μM W-9, 160 μM W-13, W-15, ribavirin
Procedure: To further elucidate the mechanisms underlying the activities of W9, W13, and W15 against CVB3 propagation in cells, we conducted a time-of-addition experiment. Briefly, 120 μM W-9, or 160 μM W-13, W-15 or ribavirin, were added to Hep-2 cells at different time periods following CVB3 infection and progeny virus yield was determined at 12 h post-infection (pi). […] In contrast, when compounds were added during the 4–10 h stage after viral infection, production of viral progeny increased somewhat, however, compared with the virus control group, the inhibition effect was still clear. Drug treatments during other periods following CVB3 infection led to a gradual increase in viral yields, reflecting a loss of antiviral effects.
Figure 4 Time-of-addition assay. 120 μM W-9, or 160 μM W-13, W-15, or ribavirin, were added to Hep-2 cells for different time periods after CVB3 infection. Progeny virus yield was determined at 12 h post-infection ((−1)–0 h, viral infection period; 0–10 h, period of virus proliferation in cells). Values are presented as means ± SDs. * p < 0.05; ** p < 0.01, compared with the virus control group.
Hep-2 cells were infected with 100 TCID50 of CVB3 and then 120 μM W-9, 160 μM W-13, 160 μM W-15, or 160 μM ribavirin were added for different time periods (−1–0, 0–10, 2–10, 4–10, 6–10, 8–10, or −1–10 h pi, where –1–0 h is the viral infection period and 0–10 h is the period of virus proliferation in the cells). Cells and culture supernatants were harvested at 12 h pi and subjected to three freeze-thaw cycles, after which virus titers were determined by the Reed–Muench method.

[3] = tested on: CVB3; assay: Viral adsorption/entry analysis; assay type: cell-based, Coxsackievirus B3; conditions: Hep-2 cells, CVB3 10^6 TCID50, 2 h adsorption; 120 μM W-9, 160 μM W-13, W-15, ribavirin
Procedure: (§4) Figure 3 Analysis of the modes of action of W9, W13, and W15 against CVB3. (a) Analysis of effective stage. The antiviral effects of test compounds against CVB3 were detected by measuring cell viability after 48 h of infection when cells were treated with W9, W13, or W15 before, simultaneously, or after inoculation with CVB3 (100 TCID50). (b) Analysis of the effects on CVB3 adsorption. Mock-, 120 μM W-9-, 160 μM W-13-, 160 μM W-15-, or 160 μM ribavirin-treated CVB3 (10^6 TCID50) was inoculated onto Hep-2 cells and adsorbed for 2 h. Infected cells were then harvested and subjected to virus titration, using the TCID50 method. (c) The effects of test compounds on CVB3 release from Hep-2 cells. Hep-2 cells infected with 100 TCID50 of CVB3 were incubated with test compounds for 12 h, then cells and culture supernatants (intra- and extracellular) analyzed for virus yield, separately or together. Mock, no infection; VC, virus control. Values represent the means ± SDs of three independent experiments. * p < 0.05; ** p < 0.01, compared with the virus control group.
To this end, Hep-2 cells were mock-treated or inoculated with CVB3 (10^6 TCID50) treated with 120 μM W-9, 160 μM W-13, 160 μM W-15, or 160 μM ribavirin, and adsorbed for 2 h. Infected cells were then harvested and subjected to virus titration, using the TCID50 method.
Cells were infected with CVB3 (10^6 TCID50) containing 120 μM W-9, 160 μM W-13, 160 μM W-15, or 160 μM ribavirin, after 2 h adsorption at 37 °C, inocula were discarded, and the cells were washed three times with phosphate buffered saline (PBS), harvested, following three freeze-thaw cycles, and subjected to virus titration. Cells infected with CVB3 in the absence of test compounds were used as untreated virus-infected controls.

[4] = tested on: CVB3; assay: CVB3 progeny virus yield in Hep-2 cells (TCID50 titration); assay type: cell-based, Coxsackievirus B3; conditions: 36 h, 120 μM W-9, 160 μM W-13, 160 μM W-15, 160 μM ribavirin
Procedure: as §1, §2, §3

[5] = tested on: CVB3; assay: Viral release analysis; assay type: cell-based, Coxsackievirus B3; conditions: Hep-2 cells, 12 h; intra- and extracellular titers; 120 μM W-9, 160 μM W-13, W-15, ribavirin
Procedure: as §4
The viral life cycle is completed by release of progeny for further infection of neighboring cells. Therefore, we tested whether viral release from cells is affected by W9, W13, and W15. Hep-2 cells infected with 100 TCID50 of CVB3 were incubated with test compounds for 12 h, then both cells and supernatants (intra- and extracellular), or one of which was harvested separately, and virus yields were determined. Ribavirin was used as the positive control.
Hep-2 cells were treated with or without 120 μM W-9, 160 μM W-13, 160 μM W-15, or 160 μM ribavirin after infection with 100 TCID50 of CVB3. Supernatants and cells were harvested together or separately for the determination of progeny virus yields at 12 h pi by the Reed–Muench method.

SMILES	reduction in ADV7 virus progeny titer relative to untreated control [1]	progeny virus titer in time-of-addition assay [2]	virus titer during virus attachment (adsorption/entry) [3]	reduction in CVB3 virus progeny titer relative to untreated control [4]	effect on CVB3 release from cells [5]
NC(=O)c1ncn([C@@H]2O[C@H](CO)[C@@H](O)[C@H]2O)n1 [Ribavirin, reference compound]	~1.7 log	very similar effects	no significant decrease in virus titer	approximately 2.0 log	do not act on viral release from cells
O=C(Oc1cc(Cl)ccc1-c1ccccn1)c1ccccc1 [W9]	approximately 2.0 log	progeny virus titers were reduced	no significant decrease in virus titer	approximately 2.5 log	do not act on viral release from cells
CC(=O)Oc1ccc(-c2ccccn2)c(OC(=O)c2ccccc2)c1 [W15]	approximately 2.0 log	progeny virus titers were reduced	no significant decrease in virus titer	approximately 2.5 log	do not act on viral release from cells
Cc1ccc(OC(=O)C(C)(C)C)c(-c2ccccn2)c1 [W13]	approximately 2.0 log	progeny virus titers were reduced	no significant decrease in virus titer	approximately 2.5 log	do not act on viral release from cells
